{
  "source": "patent US20060293383A1",
  "about": "“Carbamate compounds for use in preventing or treating neuropathic pain and cluster and migraine headache-associated pain” (priority 2001, published 2006)",
  "tested_on": "Chung model of neuropathic pain",
  "assay": "Antiallodynic activity in the Chung model (spinal nerve ligation), manually applied von Frey probes",
  "type": "in vivo, Sprague-Dawley rats",
  "settings": "for % Maximum Possible Effect: 30 min after oral dosing (time of peak effect), L5 spinal nerve ligated rats, paw withdrawal threshold",
  "excerpt": "The procedure used to test the antiallodynic activity of an enantiomer of Formula (I) substantially free of other enantiomers was the procedure for the measurement of allodynia found in the Chung Model (Kim S. H. and Chung J. M., An Experimental Model for Peripheral Neuropathy Produced by Segmental Spinal Nerve Ligation in the Rat, Pain, 1992, 50, 355-363).\nEvaluation of Antiallodynic Activity (Manually Applied Von Frey Probes) Animals\nPathogen-free, male albino Sprague-Dawley rats, 200 g, were purchased from Harlan Industries (Indianapolis, Ind.) and maintained on a 12-h light/dark cycle (lights on at 06:00 h) in a climate-controlled room with food and water available ad libitum up to the time of the testing and food withdrawn 18 hr prior to testing.\nSurgical Procedure and Measurement of Allodynia\nThe rats were anesthetized with isoflurane inhalant anesthesia. The left lumbar spinal nerve at the level of L5 was tightly ligated (4-0 silk suture) distal to the dorsal root ganglion and prior to entrance into the sciatic nerve, as described by Kim and Chung. The incisions were closed and the rats were allowed to recover under conditions described above. This procedure results in mechanical allodynia in the left hind paw. The sham operation, when performed, consisted of a similar surgical procedure lacking only the final ligation of the spinal nerve. Mechanical (tactile) allodynia was assessed by recording the pressure at which the affected paw (ipsilateral to the site of nerve injury) was withdrawn from graded stimuli (von Frey filaments ranging from 4.0 to 148.1 mN) applied by hand perpendicularly to the plantar surface of the paw (between the footpads) through wire-mesh observation cages. A paw withdrawal threshold (PWT) was determined by sequentially increasing and decreasing the stimulus strength and analyzing withdrawal data using a Dixon non-parametric test, as described by Chaplan et al (Chaplan S. R., Bach F. W., Pogrel J. W., Chung J. M. and Yaksh T. L., Quantitative Assessment of Tactile Allodynia in the Rat Paw, J Neurosci Meth, 1994, 53, 55-63). […]",
  "data": [
    {"smiles": "NC(=O)OC[C@H](O)c1ccccc1Cl", "note": "[Formula (Ib)]", "values": [
      {"measurement": "% Maximum Possible Effect", "setting": "30 mg/kg po", "value": 11, "unit": "%"},
      {"measurement": "% Maximum Possible Effect", "setting": "100 mg/kg po", "value": 28, "unit": "%"},
      {"measurement": "time of peak antiallodynic effect", "setting": "after oral dosing, 30 and 100 mg/kg", "value": 30, "unit": "min"}
    ]}
  ]
}
